In ChEMBL document CHEMBL4000246, “Total synthesis and cytotoxicity of Leucetta alkaloids” (Bioorg Med Chem, 2017) one finds IC50 data, which are given here for 21 compounds.

One may read the IC50 as the point on the concentration scale where inhibition reaches its midpoint.

In the test the test system is MCF7. In words: Cytotoxicity against human MCF7 cells assessed as growth inhibition after 96 hrs by MTT assay. The class given is functional, cell-based.
Turning to `COC1=C(OC)C(=O)c2c(cc3c([nH]c(=O)n3C)c2-c2ccc(OC)cc2)C1=O`, the IC50 was determined as 43.8 µM.
The same measure for `COC1=C(OC)C(=O)c2c(cc3c(nc(N)n3C)c2-c2ccc(OC)cc2)C1=O`: over 100 µM; for `COc1ccc(-c2c3cc(OC)c(OC)cc3cc3c2nc(N)n3C)cc1`: 4.4 µM.
As for `COc1ccc(-c2c3nc(N)n(C)c3cc3cc(OC)c(OC)c(OC)c23)cc1`, the figure is 19.5 µM; as for `COc1ccc(-c2c3cc(OCc4ccccc4)c(OC)cc3cc3c2ncn3C)cc1`, 76.9 µM; as for `COc1ccc(-c2c3cc(OC)c(OC)cc3cc3c2ncn3C)cc1`, 99.8 µM.
With `COc1ccc(-c2c3ncn(C)c3cc3cc(OC)c(OC)c(OC)c23)cc1`, the IC50 was over 100 µM.
Consider `COC1=C(OC)C(=O)c2c(cc3c(ncn3C)c2-c2ccc(OC)cc2)C1=O`, for which the half-maximal inhibitory concentration (IC50) stood at 92 µM.
The same measure for `COc1ccc(-c2c3[nH]c(=O)n(C)c3cc3cc(OC)c(OC)c(OC)c23)cc1`: 91.9 µM; for `COc1ccc(-c2c3cc(OC)c(OC)c(OC)c3cc3c2nc(N)n3C)cc1`: 4.94 µM; for `COc1ccc(-c2c3cc(OC)c(OC)c(OC)c3cc3c2ncn3C)cc1`: 68.2 µM.
The same measure for `COc1ccc(-c2c3cc(O)c(OC)cc3cc3c2ncn3C)cc1`: 41.1 µM; for `COc1ccc(Cc2nc(N)n(C)c2Cc2ccc(OC)cc2)cc1`: 28.8 µM; for `COc1ccc(Cc2c(C(OC)c3ccc(OC)cc3)nc(N)n2C)cc1` (stereo unspecified): 22.7 µM.
The same measure for `Cn1cc(Cc2ccc3c(c2)OCO3)nc1N`: 23.4 µM; for `COc1ccc(Cc2nc(NC3=NC(=O)N(C)C3=O)n(C)c2Cc2ccc(OC)cc2)cc1`: 5.08 µM; for `Cn1cnc(Cc2ccc3c(c2)OCO3)c1`: over 100 µM.
Consider `CN1C(=O)N=C(Nc2nc(Cc3ccc4c(c3)OCO4)cn2C)C1=O` [CLATHRIDINE], for which the half-inhibitory concentration (IC50) is over 100 µM.
As for `COc1ccc(Cn2cc(Cc3ccc(OC)c(OC)c3)nc2/N=C2/NC(=O)N(C)C2=O)cc1` [ISONAAMIDINE E], the figure is 5.78 µM; as for `COc1ccc(Cn2cc(Cc3ccc(OC)c(OC)c3)nc2N)cc1` [ISONAAMINE C], 28 µM.
As for `COc1ccc(-c2c3cc(O)c(OC)cc3cc3c2[nH]c(=N)n3C)cc1` [KEALIININE A], the figure is over 100 µM.
